According to ChEMBL document CHEMBL1126506, “Thoromboxane A2/endoperoxide receptor antagonists: 1,3-Dioxane and 1,3-dioxolane analogs” (Bioorg Med Chem Lett, 1993):

Tests used:
Thromboxane A2 receptor [1] = molecular target: T1, Thromboxane A2 receptor (Homo sapiens, UniProt P21731); test: In vitro inhibition against TXA2/PGH2 receptor using [3H]-SQ 29,548 as radioligand in human platelet membrane preparation; type: cell membranes; conditions: read-out: I50
T1 sequence (P21731 whole entry): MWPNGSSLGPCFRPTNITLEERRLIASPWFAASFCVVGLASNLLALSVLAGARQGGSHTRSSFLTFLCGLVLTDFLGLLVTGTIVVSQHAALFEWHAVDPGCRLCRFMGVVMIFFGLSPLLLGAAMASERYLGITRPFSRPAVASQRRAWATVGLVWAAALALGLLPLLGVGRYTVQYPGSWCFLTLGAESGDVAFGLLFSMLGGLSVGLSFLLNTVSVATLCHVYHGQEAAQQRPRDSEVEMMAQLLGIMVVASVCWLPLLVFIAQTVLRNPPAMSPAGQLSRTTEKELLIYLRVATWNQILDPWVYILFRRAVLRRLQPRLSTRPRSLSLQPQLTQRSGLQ

Thromboxane A2 receptor [2] = molecular target: T1, Thromboxane A2 receptor; test: In vitro binding affinity was determined for platelet thromboxane receptor in presence of [3H]-SQ 29548
Homo sapiens = organism: Homo sapiens; test: Tested for ability to inhibit arachidonic acid-induced and ADP-induced platelet aggregation of human platelet rich plasma; type: functional; conditions: read-out: I50

| Compound | IC50 (Thromboxane A2 receptor [1]) [nM] | Kd (Thromboxane A2 receptor [2]) [nM] | IC50 (Homo sapiens) [nM] |
| --- | --- | --- | --- |
| O=C(O)CCc1ccccc1CC1OCOC1c1nc(C(=O)NCCc2ccc(Cl)cc2)co1 (trans isomer; (+)) | 3100 | 45 |  |
| O=C(O)CCc1ccccc1CC1OCOC1c1nc(C(=O)NCCc2ccc(Cl)cc2)co1 (trans isomer; (-)) | 310 | 8.2 |  |
| CCCCCNC(=O)c1coc(C2C3CCC(O3)C2Cc2ccccc2CCC(=O)O)n1 (stereo not given) [BMS-180291] |  |  | 7 |

More lines, in order of falling IC50 (Thromboxane A2 receptor [1]), values ahead:

| IC50 (Thromboxane A2 receptor [1]) [nM] | Kd (Thromboxane A2 receptor [2]) [nM] | IC50 (Homo sapiens) [nM] | Compound |
| --- | --- | --- | --- |
| 330 | 8 |  | O=C(O)CCc1ccccc1CC1COCOC1c1nc(C(=O)NCCc2ccc(Cl)cc2)co1 (stereo not given) |
| 130 | 31.1 |  | O=C(O)CCc1ccccc1CC1OCOC1c1nc(C(=O)NCCc2ccc(Cl)cc2)co1 (racemic) |
| 7 |  |  | O=C(O)CCc1ccccc1CC1C2CCC(O2)C1c1nc(C(=O)NCCc2ccc(Cl)cc2)co1 (stereo not given) |
